A short description of data set [1]: Paclitaxel plasma pharmacokinetics, cycle 1 day 1. The format is in vivo, human.
For data set [2] the following is noted: paclitaxel 100 mg/m^2; patients receiving PIs (nelfinavir, indinavir, other multiple protease inhibitors); Kaposi Sarcoma and HIV; cited from earlier work.
Data set [3] can be described thus: Adverse events, NCI CTCAE version 4.0, worst grade in any cycle. The format is in vivo, human. Particulars: 2 patients, first vorinostat dose level (400 mg orally days 1-5 of each cycle).
Setting [4] is: Ritonavir cohort, cycle 1, paclitaxel 175 mg/m^2 IV with carboplatin.

With `CC(=O)O[C@H]1C(=O)[C@@]2(C)[C@H]([C@H](OC(=O)c3ccccc3)[C@]3(O)C[C@H](OC(=O)[C@H](O)[C@@H](NC(=O)c4ccccc4)c4ccccc4)C(C)=C1C3(C)C)[C@]1(OC(C)=O)CO[C@@H]1C[C@@H]2O` [Paclitaxel], the “differences in Cmax or AUCinf between the 2 cohorts” value in data set [1] (6 patients, ritonavir vs non-ritonavir) is “no significant differences”. Moreover, the Cl in data set [1] (setting [4]) came out at 4.1 L/hr/m^2. Moreover, in data set [1] (setting [4]), the “Time > C 0.5 µM” value was 22.7 h. Moreover, the “duration spent at a paclitaxel concentration >0.05 µM” value came out at 23.8 h in data set [1] (non-ritonavir cohort) and 22.7 h in data set [1] (ritonavir cohort). The “pharmacokinetic interaction with ritonavir” value in data set [1] (ritonavir at a boosting dose for ART in combination with paclitaxel) is reported as “no evidence for pharmacokinetic interaction”. Moreover, in data set [2], the “Paclitaxel exposure as measured by AUC” value was 5.5 ± 2.2 µM·h.
For the molecule `O=C(CCCCCCC(=O)Nc1ccccc1)NO` [vorinostat], the “toxicity of PCb combination with vorinostat” value in data set [3] is “without prohibitive toxicity”.

Values taken from article PMC9355812 (The Oncologist, 2022).
